{"source": "patent US20260248869A1", "about": "“SILICONE GEL COMPOSITION OF WALNUT EXTRACT” (priority 2022, published 2026)", "test": "Confocal optical microscopy of Juglone penetration depth in human skin", "assay_type": "in vitro ADME", "conditions": "epidermal region; signal disappeared at greater depths", "description": "The penetration in human skin was also studied by confocal microscopy, using the fluorescence of the Juglone molecule exciting it with light of 488 nm and observing its fluorescence in a window from 510 to 702 nm. For this penetration study, a Leica microscope, model SPE Confocal Microscope was used, with a 10×lens. The location of the Juglone molecules in depth was established with this instrument (in perpendicular direction to the skin surface). The accumulation of Juglone at different depth levels causes the appearance of areas with different fluorescence intensity and allows to observe directly where the molecule is retained. It must be noted that white Caucasian skins were chosen to prevent interferences of basal fluorescence and thus clearly observe the fluorescence of the Juglone molecule.\nThe transdermal permeation study was performed according to the “Guidance document for the conduct of skin absorption studies”. OECD series on testing assessment. Number 28. ENV/JM/MONO (2004) 2.5 Mar. 2004. Using Franz type cells, of 1.80 cm in diameter, and a surface of 2.54 cm^2. The permeation membrane used was human skin of the abdominal area (0.400 mm thick) from repair surgery and previously treated. This thickness covers the epidermis and dermis above the vascular plexus. […]"}
{"smiles": "O=C1C=CC(=O)c2c(O)cccc21", "note": "[Juglone, 5-hydroxy-1,4-naphthalenedione]", "values": [{"measurement": "Depth at which the specific fluorescence of Juglone is maintained", "value": "less than 120 μm"}]}
